SMILES | melting point
Cc1c(C=O)c(=O)n(-c2ccccc2)n1C | 162 to 165 °C
CC(C)(C)OC(=O)N1CCC(C(=O)O)(C(=O)O)C1 | 131 to 133 °C
CC(=O)C(C#N)c1ccc(Cl)cc1 (centres undefined) | 129 to 131 °C
O=C(O)c1csc(-c2cnn(-c3ccccc3)c2)n1 | 202 to 204 °C
Cc1ccc(CN(C)C)cc1N | 66 to 68 °C
CCn1c(C)c(C(=O)O)c2cc(OC)ccc21 | 173 to 175 °C
COc1ccc(-c2ccc(C(=O)O)c(F)c2)c(F)c1 | 212 to 214 °C
Cc1cc(C)c2ncc(C#N)c(Cl)c2c1 | 141 to 143 °C
FC(F)(F)c1ccccc1-c1nnc(CCl)o1 | 35 to 37 °C
CC(C)(C)c1n[nH]c(O)c1CCC#N | 218 to 220 °C
CC(Sc1ccc(Cl)cc1)C(=O)O (centres undefined) | 106 to 108 °C
CC(=O)N(c1ccc(C)cc1)c1nc(C=O)cs1 | 166 to 168 °C
CCOC(=O)c1c(N)sc(C(=O)OCCOC)c1C | 118 to 120 °C
Nc1cc(Cl)ccc1-n1cncn1 | 93 to 97 °C
O=C(O)c1ccc(CS(=O)(=O)C(F)F)cc1 | 218 to 220 °C
Nc1c(-c2cccnc2)nc2ccccn12 | 179 to 181 °C
Cc1cccc(-n2c(C)cc(/C=C(\C#N)C(=O)O)c2C)c1 | 75 to 77 °C
O=C1NC2(CCCC2)C(=O)N1Cc1ccc(Cl)nc1 | 169 to 171 °C
O=C(O)c1cc(Br)c(Cl)[nH]1 | 179 to 181 °C
OC(c1ccc(Cl)cc1)c1cccnc1 (centres undefined) | 106 to 108 °C
Nn1cnc2sccc2c1=O | 214 to 216 °C
CCOC(=O)Cc1nnc(S)n1C | 135 to 137 °C

SMILES | melting point
Nc1nnc(-c2cccc([N+](=O)[O-])c2)o1 | 256 to 258 °C
Cc1nn(Cc2ccccc2)c(Cl)c1C(=O)O | 180 to 182 °C
Cc1ccc(-c2csc(Cl)n2)cc1 | 93 to 95 °C
O=C(O)C1(O)CCC1 | 39 to 41 °C
O=Cc1cn(Cc2ccccc2)nc1-c1cc2ccccc2o1 | 146 to 148 °C
CS(=O)(=O)CC1(CBr)CC1 | 50 to 52 °C
Nc1ccc2nc(N)ccc2c1 | 213 to 215 °C
CC(=O)NC(C)c1ccc(-c2csc(N)n2)cc1 (centres undefined) | 225 to 227 °C
NS(=O)(=O)c1ncccn1 | 173 to 175 °C
CCOC(=O)c1sc2nc(N3CCOCC3)[nH]c(=O)c2c1C | 296 to 298 °C
Cc1ccc(-n2c(C)c(C)c3c(N)ncnc32)cc1 | 202 to 206 °C
Nc1cc2c(cc1N)OCC(=O)N2 | 252 to 254 °C
Cc1cc(Oc2ncccn2)ccc1N | 132 to 134 °C
c1ccc2[nH]c(C3CCNCC3)nc2c1 | 253 to 255 °C
Cc1n[nH]c(C)c1CO | 178 to 180 °C
CS/C(=N\C#N)N1CCOCC1 | 126 to 128 °C
COc1ccc2cc(C(N)=S)ccc2c1 | 188 to 190 °C
CN(C)S(=O)(=O)c1ccc(S(=O)(=O)Cl)c([N+](=O)[O-])c1 | 153 to 155 °C
COc1ccccc1C(N)=NO | 105 to 107 °C
COC(=O)COc1c(C)cc(C=O)cc1C | 50 to 52 °C
Sc1nnnn1C1CC1 | 127 to 129 °C
CSc1ccncc1N | 78 to 80 °C

SMILES | melting point
O=C(O)CSCc1nc2scc(-c3cccs3)c2c(=O)[nH]1 | 148 to 150 °C
N#Cc1cnc(N)cn1 | 186 to 188 °C
Nc1nonc1-c1ccc(F)cc1 | 125 to 127 °C
Clc1nnc(-c2ccccn2)s1 | 105 to 107 °C
Nc1cc(C(F)(F)F)cc2c1OCC(=O)N2 | 199 to 201 °C
Cc1cccc(NC(N)=S)c1 | 110 to 112 °C
CC(C)c1nc(S(=O)(=O)Cl)c[nH]1 | 162 to 164 °C
O=[N+]([O-])c1ccc(S(=O)(=O)Cl)cn1 | 81 to 83 °C
Nc1nnc(C(F)F)s1 | 174 to 176 °C
NCC(O)c1ccccc1C(F)(F)F (centres undefined) | 106 to 108 °C
O=c1[nH]nc2n1CCNC2 | 179 to 181 °C
Cc1c(C(=O)O)cnn1CCC#N | 159 to 161 °C
CSc1cnn(-c2ccccc2)c1N | 77 to 79 °C
CC1CC(C)CC2(C1)NC(=O)NC2=O (centres undefined) | 299 to 301 °C
COCCCNC(=O)CC#N | 63 to 65 °C
O=C(O)c1cc(Br)c(S(=O)(=O)Cl)s1 | 129 to 131 °C
ClCCc1nnnn1-c1ccccc1 | 45 to 47 °C
COCCN1C(=O)C(=O)c2ccc(Br)cc21 | 139 to 141 °C
O=C(O)CCS(=O)(=O)N1CCOCC1 | 163 to 165 °C
NS(=O)(=O)c1ccc(S(=O)(=O)Cl)cc1 | 144 to 146 °C
OCc1cc(I)c(CO)cc1I | 218 to 220 °C
O=C(CCl)NC(C1CC1)C1CC1 | 114 to 116 °C

The next lines start with the values.

melting point | SMILES
85 to 87 °C | N#Cc1ccc(OCC2CO2)c([N+](=O)[O-])c1 (centres undefined)
124 to 126 °C | O=C(CO)c1ccc(Cl)cc1
199 to 201 °C | O=C(O)c1cccn1-c1ccc(I)cc1
131 to 133 °C | O=C(O)CSc1nnc(-c2ccc(F)cc2)n1CC1CCCO1 (centres undefined)
218 to 220 °C | NS(=O)(=O)c1ccc(F)cc1C(=O)O
51 to 53 °C | N#CCNc1cccc(Cl)c1
150 to 152 °C | Cc1ccc(CNC(=O)c2ccccc2NC(=O)CCl)cc1
65 to 67 °C | CC1CSc2ccc(Br)cc2C1=O (centres undefined)
189 to 191 °C | COc1ccc(C(=O)O)nc1I
86 to 88 °C | NCc1ccccc1CN1CCN(c2ccccc2)CC1
76 to 78 °C | CN(C)C(=O)c1ccc(Cl)c(N)c1
159 to 161 °C | NC(Cc1nc2ccccc2s1)=NO
183 to 185 °C | Cc1ccc2[nH]cc(C(=O)O)c2c1
106 to 108 °C | O=C(O)c1ccccc1S(=O)(=O)N1CCCCC1
240 to 242 °C | O=C(O)c1ccc(NS(=O)(=O)c2ccc(F)cc2)cc1
94 to 96 °C | CCOC(=O)c1ccc(S(=O)(=O)N2CCNCC2)cc1
52 to 54 °C | Cc1ccccc1COc1cccc(CC(=O)O)c1
86 to 88 °C | Nc1cc(CC2CC3CCC2C3)no1 (centres undefined)
106 to 108 °C | Nc1c(Cl)cnn1C1CCN(Cc2ccccc2)C1 (centres undefined)
133 to 135 °C | NC(=O)C1CN(C(=O)CCl)c2ccccc2O1 (centres undefined)
132 to 134 °C | CCOC(=O)c1oc2ccc(Br)cc2c1CBr
204 to 206 °C | O=C(O)CN1C(=O)c2ccc(Br)cc2C1=O
164 to 166 °C | CC(=O)Nc1ccc(Oc2nc3ccccc3o2)cc1
118 to 120 °C | COC(=O)C(C)Sc1ccccc1C(=O)O (centres undefined)
85 to 87 °C | NS(=O)(=O)CC1CCOCC1
184 to 186 °C | N#Cc1ccc2ncc(C=O)n2c1

melting point | SMILES
133 to 135 °C | Nc1ccc(C(=O)N2CCCCCC2)cc1
201 to 203 °C | CCOc1cc(/C=C/C(=O)O)ccc1OCc1cccnc1
157 to 159 °C | Nc1cc(Cl)ccc1C(=O)Nc1ccc(Cl)cn1
76 to 78 °C | CNC1CCCN(c2ccccc2)C1=O (centres undefined)
91 to 93 °C | OC1CCOc2ccc(Br)cc21 (centres undefined)
197 to 199 °C | O=C(O)CCc1ccc(-c2ccccc2)[nH]1
100 to 102 °C | COC(=O)c1sc(-c2cccc(Cl)c2)cc1N
217 to 219 °C | CC(=O)Nc1ccc2nc(N)sc2c1
116 to 118 °C | CCC(=O)Nc1cccc(N)c1C
84 to 86 °C | N#Cc1cccc(NCc2ccc(Cl)cc2)c1
164 to 166 °C | CNS(=O)(=O)c1ccc(C(=O)O)o1
138 to 140 °C | CCC(C)(C#N)NC(=O)c1ccccc1 (centres undefined)
84 to 86 °C | COC(=O)c1cccc(N)c1O
110 to 112 °C | CC(Oc1cccc(C#N)c1)C(=O)O (centres undefined)
200 to 202 °C | O=C(O)c1cc2ccccc2c2cccnc12
144 to 146 °C | N[C@H]1CC[C@@H](CO)CC1
117 to 119 °C | O=C(O)Cc1sc(-c2ccccc2)nc1-c1cccs1
169 to 171 °C | C/C(=C\C(=O)O)C12CC3CC(CC(C3)C1)C2
94 to 96 °C | O=C(O)C1CCN(c2ncccn2)CC1
138 to 140 °C | O=C(O)C1(S(=O)(=O)c2ccc(Br)cc2)CCCC1
56 to 58 °C | O=C(O)C1CCCOC1c1ccccc1 (centres undefined)
155 to 157 °C | CS(=O)(=O)N1CCc2c(N)cccc2C1
119 to 121 °C | CC1(C(=O)O)CCCN1C(=O)OCc1ccccc1 (centres undefined)
217 to 219 °C | Nc1ccc(C(=O)NC2CCOCC2)cc1
186 to 188 °C | NS(=O)(=O)c1ccc(F)c(C(=O)O)c1
119 to 121 °C | CC(Cl)C(=O)NC1CCN(Cc2ccccc2)CC1 (centres undefined)

melting point | SMILES
138 to 140 °C | Oc1nnc(-c2ccccc2)o1
99 to 101 °C | Nc1nnc(SCc2ccccc2)[nH]1
214 to 216 °C | O=C(O)c1cnn(-c2ccccc2)c1Br
279 to 281 °C | N#Cc1c(S)nc2c(c1-c1ccco1)CCC2
179 to 181 °C | O=C(CC1CCCCC1)Nc1cccc2c1NCCC2
230 to 232 °C | Cc1c[nH]c(=O)n1-c1ccc(C#N)cc1
171 to 173 °C | O=C(O)Cc1ccc(O)cc1Cl
120 to 122 °C | O=C(O)c1ccccc1SC(F)(F)F
160 to 162 °C | O=C(O)CCc1ccc(S(=O)(=O)N2CCOCC2)cc1
78 to 80 °C | CN(C)C(=O)Sc1ccc(CCl)cc1
170 to 172 °C | NC(=O)CNC(=O)c1cccc(N)c1
130 to 132 °C | CCOC(=O)c1cc(S(C)(=O)=O)ccc1N
67 to 69 °C | OCCc1cc2cc(Br)ccc2o1
132 to 134 °C | CC(=O)Cn1c(CCl)nc2sc3c(c2c1=O)CCCC3
187 to 189 °C | O=S(=O)(Cl)c1c[nH]c2ncccc12
147 to 149 °C | Nc1ccc(Cl)cc1C(=O)NC1CC1
221 to 223 °C | CNS(=O)(=O)c1cc(C(=O)O)ccc1OC
217 to 219 °C | COc1ccc(C(=O)O)cc1S(=O)(=O)Cc1cc(C)no1
336 to 338 °C | Cc1ccc(C(=O)O)cc1NC(=O)NC(C)(C)C
172 to 174 °C | CCc1cc(=O)[nH]c(-c2ccncc2)n1
95 to 97 °C | COC(=O)NCc1ccc(N)cc1
146 to 148 °C | NS(=O)(=O)c1ccc2c(c1)COC2
44 to 46 °C | Cc1cccc(CNCc2cccc(C)n2)n1
319 to 321 °C | O=c1c2ccccc2[nH]c2ccc(O)cc12
80 to 89 °C | O=C(O)CCc1cnn(-c2ccccc2)c1
112 to 114 °C | COc1ccc(NC(=O)CSCC(=O)O)cc1
